PMC7170299, “Design, synthesis, molecular modelling and biological evaluation of novel 3-(2-naphthyl)-1-phenyl-1H-pyrazole derivatives as potent antioxidants and 15-Lipoxygenase inhibitors” (Journal of Enzyme Inhibition and Medicinal Chemistry, 2020)

Tests used:
[1] = system: glutathione (GSH) in liver; assay: In vivo reduced glutathione (GSH) level in liver homogenate; set-up: species or system male Wistar albino rats; conditions: rat liver, 100 mg/kg orally for 3 days; for GSH: mean ± SEM, n = 6
Procedure: (§1) The complete progress of the experiment was conducted using male Wistar albino rats (200–250 g), delivered by the Institutional Breeding House, Egypt, reared and maintained in the animal house of the institution. The animals had free access to food and water ad libitum and maintained in a controlled environment under standard conditions of temperature and humidity with an alternating 12 h light and dark cycle for about a week for acclimatization. The protocol of the study was approved by the Animal Ethics Committee of the Faculty of Pharmacy, Helwan University (ethical code number: 05A2019; date: October 2019). The study was conducted in accordance with the EC, directive 86/609/EEC for animal experiments.
(§2) Rats are weighed at the beginning and at the end of experiment. Fifty-four male albino rats (n=6) were divided into nine different groups. Group I served as a control group and treated with the same volume vehicle only. Group II treated with 100 mg/kg of Ascorbic acid as standard antioxidant drug. Groups (III–IX) orally administered 100 mg/kg of compounds 3a, 4e, 5b, 5c, 6a, 6c, 6e, respectively, for 3 days. The animals were sacrificed by cervical dislocation 24 h after the last dose. Sacrificing is carried out at the same time of the day, to avoid the circadian variation in the level of tissue GSH[53]. Each liver was excised, weighed, rinsed in ice-cold normal saline and frozen for not more than 72 h await analysis of endogenous antioxidant status (GSH levels and CAT activity) and lipid peroxide concentrations. For performing biochemical assays, a 10% liver homogenate in 10 mM phosphate buffer was prepared using tissue homogeniser (Glas-Col®, Cat no.099C K6424, TERRE HAUTE, USA).
Levels of glutathione (GSH) in liver homogenates were assayed by the deproteinization of tissue homogenate. Then […] supernatant was mixed with di-potassium hydrogen phosphate buffer (pH 8) and 0.4% 5,5′-dithiobis-2-nitrobenzoic acid (Ellman’s reagent). The yellow-coloured substance formed was measured at 412 nm. The results were expressed as GSH mg/g tissue.

[2] = DPPH radical scavenging assay; conditions: mean ± SEM of three experiments; 30 min, 517 nm
[3] = system: Catalase (CAT) activity in liver; assay: In vivo catalase (CAT) activity in liver homogenate; set-up: species or system male Wistar albino rats; conditions: rat liver, 100 mg/kg orally for 3 days; for CAT: mean ± SEM, n = 6
Procedure: as §1, §2
Catalase activity in 10% liver homogenates was determined spectrophotometrically according to Sinha AK[54]. The decrease in absorbance at 240 nm due to H2O2 decomposition was measured and the results were expressed in U/mg tissue.

[4] = system: lipid peroxidation (MDA) in liver; assay: In vivo lipid peroxide level (TBARS/MDA) in liver homogenate; set-up: species or system male Wistar albino rats; conditions: rat liver; 100 mg/kg orally for 3 days; mean ± SEM, n = 6
Procedure: as §1, §2
Lipid peroxidation level in the liver homogenates was determined as thiobarbituric acid reactive substances (TBARS) by measuring malondialdehyde ‘MDA’ level according to Mihara and Uchiyama[56]. Briefly, 0.5 mL supernatant of tissue homogenate was mixed with 0.6% thiobarbituric acid (TBA) and 1% orthophosphoric acid solution, and heated in a boiling water bath for 45 min. The pink-coloured chromogen formed by the reaction of TBA with MDA was extracted by n-butanol and measured at 535 nm. The results were expressed as nmol/g tissue.

[5] = NO scavenging assay (sodium nitroprusside / Griess reagent); conditions: mean ± SEM of three experiments; 90 min, 546 nm

SMILES | DPPH IC50 [2] [µg/mL] | NO IC50 [5] [µg/mL] | GSH [1] [mg/g tissue] | CAT [3] [U/mg tissue] | TBARS [4] [nmol/g tissue] | Increase in GSH compared to control group [1] | Increase of CAT enzyme level compared to control group [3]
NC(=S)N1N=C(c2ccccc2)CC1c1cn(-c2ccccc2)nc1-c1ccc2ccccc2c1 (centres unmarked) [Compound 6a, 3′-Naphthalen-2-yl-5,1′-diphenyl-3,4-dihydro-1’H-[3,4′]bipyrazolyl-2-carbothioic acid amide] | 20.47 ± 1.43 | 36.37 ± 0.75 | 7.07 ± 0.35 | 27.97 ± 3.46 | 0.348 ± 0.03 | – | –
Clc1ccc(C2=NN(c3ccccc3)C(c3cn(-c4ccccc4)nc3-c3ccc4ccccc4c3)C2)cc1Cl (centres unmarked) [Compound 4e, 5-(3,4-Dichlorophenyl)-3′-naphthalen-2-yl-2,1′-diphenyl-3,4-dihydro-2H,1’H-[3,4′]-bipyrazole] | 19.56 ± 1.06 | 57.01 ± 1.29 | 7.05 ± 0.56 | 43.48 ± 4.51 | 0.402 ± 0.04 | – | –
COc1ccc(C2=NOC(c3cn(-c4ccccc4)nc3-c3ccc4ccccc4c3)C2)cc1 (centres unmarked) [Compound 5b, 3-(4-Methoxyphenyl)-5-(3-naphthalen-2-yl-1-phenyl-1H-pyrazol-4-yl)-4,5-dihydro isoxazole] | 46.62 ± 1.63 | 75.53 ± 1.43 | 10.71 ± 0.86 | 48.19 ± 1.24 | 0.330 ± 0.02 | about 52% | about 101%
NC(=S)N1N=C(c2ccc(Cl)c(Cl)c2)CC1c1cn(-c2ccccc2)nc1-c1ccc2ccccc2c1 (centres unmarked) [Compound 6e] | 9.66 ± 0.34 | 71.39 ± 1.25 | 10.65 ± 0.97 | 57.84 ± 3.50 | 0.344 ± 0.05 | ~51% | ~141%
Cc1ccc(C2=NN(C(N)=S)C(c3cn(-c4ccccc4)nc3-c3ccc4ccccc4c3)C2)cc1 (centres unmarked) [Compound 6c, 3′-Naphthalen-2-yl-1′-phenyl-5-p-tolyl-3,4-dihydro-1’H-[3,4′]bipyrazolyl-2-carbo thioic acid amide] | 18.98 ± 1.73 | 23.79 ± 0.83 | 9.01 ± 0.72 | 44.38 ± 2.81 | 0.428 ± 0.02 | – | –

More lines, main results first:

DPPH IC50 [2] [µg/mL] | NO IC50 [5] [µg/mL] | SMILES | GSH [1] [mg/g tissue] | CAT [3] [U/mg tissue] | TBARS [4] [nmol/g tissue] | Increase in GSH compared to control group [1] | Increase of CAT enzyme level compared to control group [3]
13.99 ± 0.78 | 27.65 ± 1.53 | c1ccc(C2=NNC(c3cn(-c4ccccc4)nc3-c3ccc4ccccc4c3)C2)cc1 (centres unmarked) [Compound 3a, 3′-Naphthalen-2-yl-5,1′-diphenyl-3,4-dihydro-2H,1’H-[3,4′]bipyrazole] | 7.00 ± 0.27 | 36.21 ± 3.49 | 0.350 ± 0.05 | – | –
47.27 ± 1.13 | 38.99 ± 1.31 | Cc1ccc(C2=NOC(c3cn(-c4ccccc4)nc3-c3ccc4ccccc4c3)C2)cc1 (centres unmarked) [Compound 5c, 5-(3-Naphthalen-2-yl-1-phenyl-1H-pyrazol-4-yl)-3-p-tolyl-4,5-dihydroisoxazole] | 10.92 ± 0.96 | 45.42 ± 4.30 | 0.346 ± 0.01 | ~55% | ~89%
